Laboratory results published in ChEMBL document CHEMBL4825722, “Discovery of Potent Selective Nonzinc Binding Autotaxin Inhibitor BIO-32546” (ACS Med Chem Lett, 2021).
Values after ≈ are worked out from the molar mass of the structure shown.

Assays:
[1] = Oral bioavailability in dog at 1.0 mg/kg; type: ADME, organism-based, Canis lupus familiaris; settings: in vivo
[2] = Oral bioavailability in rat at 10 mg/kg; type: ADME, organism-based; settings: in vivo
[3] = AUC (0 to 24 hrs) in rat at 10 mg/kg, po; type: ADME, organism-based; design: time < 24 hr, route oral, dose 10 mg/kg; settings: in vivo
Cytochrome P450 2C9 = Cytochrome P450 2C9 (Homo sapiens, UniProt P11712); assay: Inhibition of CYP2C9 in human liver microsomes incubated for 15 mins in presence of NADPH by LC-MS/MS analysis; type: ADME
[4] = Tmax in C57BL/6 mouse brain at 10 mg/kg, po; type: ADME, organism-based
[5] = Apparent permeability across apical to basolateral side in human Caco-2 cells incubated for 120 mins by lucifer yellow based LC-MS/MS analysis
[6] = target: Sphingosine 1-phosphate receptor 1 (Homo sapiens, UniProt P21453); assay: Inhibition of S1P1 (unknown origin)
[7] = Apparent permeability across basolateral to apical side in human Caco-2 cells incubated for 120 mins by lucifer yellow based LC-MS/MS analysis
Rattus norvegicus [8] = assay: Effect on Sprague-Dawley rat CFA inflammatory […] model assessed as reduction in 20:4 LPA level at 0.3 mg/kg after 6 hrs by LC-MS/MS analysis; type: functional; design: scale not given: the % may be the effect or the level left
[9] = target: Lysophosphatidic acid receptor 5 (Homo sapiens, UniProt Q9H1C0); assay: Inhibition of LPA5 (unknown origin)
[10] = target: Lysophosphatidic acid receptor 2 (Homo sapiens, UniProt Q9HBW0); assay: Inhibition of LPA2 (unknown origin)
[11] = AUC (0 to 24 hrs) in C57BL/6 mouse brain at 10 mg/kg, po; type: ADME, organism-based; design: time < 24 hr, route oral, dose 10 mg/kg
Cytochrome P450 3A4 = Cytochrome P450 3A4 (Homo sapiens, UniProt P08684); assay: Inhibition of CYP3A4 in human liver microsomes incubated for 15 mins in presence of NADPH by LC-MS/MS analysis; type: ADME
[12] = Drug concentration in Sprague-Dawley rat at 3 mg/kg, po after 6 hrs by LC-MS/MS analysis; type: ADME, organism-based; settings: in vivo, read-out: Drug uptake
hERG (KCNH2) [13] = target: T1, hERG (KCNH2) (Homo sapiens, UniProt Q12809); assay: Inhibition of human ERG at 1 uM by automated patch-clamp assay relative to control
[14] = Drug concentration in Sprague-Dawley rat at 0.1 mg/kg, po after 6 hrs by LC-MS/MS analysis; type: ADME, organism-based; settings: in vivo, read-out: Drug uptake
hERG (KCNH2) [15] = target: T1, hERG (KCNH2); assay: Inhibition of human ERG at 10 uM by automated patch-clamp assay relative to control
[16] = Cmax in C57BL/6 mouse plasma at 2.32 mg/kg, iv; type: ADME, organism-based; design: route intravenous, dose 2.32 mg/kg
[17] = Tmax in dog at 1.0 mg/kg, po; type: ADME, organism-based, Canis lupus familiaris; settings: in vivo
[18] = Volume of distribution at steady state in C57BL/6 mouse plasma at 2.32 mg/kg; type: ADME, organism-based; settings: read-out: Vdss
Rattus norvegicus [19] = assay: Effect on Sprague-Dawley rat CFA inflammatory […] model assessed as reduction in 20:4 LPA level at 0.1 mg/kg, po after 6 hrs by LC-MS/MS analysis; type: functional; design: scale not given: the % may be the effect or the level left
[20] = Total brain to plasma concentration ratio in rat at 10 mg/kg, po measured after 4 hrs; type: ADME, organism-based; settings: brain and plasma, read-out: BPR
[21] = target: Sphingosine 1-phosphate receptor 3 (Homo sapiens, UniProt Q99500); assay: Inhibition of S1P3 (unknown origin)
[22] = Solubility of the compound at pH 7.0 by shake flask method; settings: buffer
[23] = Drug concentration in Sprague-Dawley rat at 0.3 mg/kg, po after 6 hrs by LC-MS/MS analysis; type: ADME, organism-based; settings: in vivo, read-out: Drug uptake
[24] = AUC (0 to 24 hrs) in rat at 1 mg/kg, iv; type: ADME, organism-based; design: time < 24 hr, route intravenous, dose 1 mg/kg; settings: in vivo
[25] = Clearance in rat at 1.0 mg/kg, iv; type: ADME, organism-based; settings: in vivo, time <=24 hrs
[26] = Half life in C57BL/6 mouse plasma at 2.32 mg/kg; type: ADME, organism-based
[27] = Volume of distribution at steady state in rat at 1.0 mg/kg, iv; type: ADME, organism-based; settings: in vivo, read-out: Vdss
[28] = Drug concentration in mouse brain at 10 mg/kg, po; type: ADME, organism-based; settings: in vivo
[29] = Drug concentration in rat brain at 10 mg/kg, po after 4 hrs; type: ADME, organism-based; settings: read-out: Ct
[30] = Protein binding in C57BL/6 mouse brain assessed as unbound fraction; type: ADME, tissue-based
[31] = AUC (0 to 24 hrs) in C57BL/6 mouse plasma at 10 mg/kg, po; type: ADME, organism-based; design: time < 24 hr, route oral, dose 10 mg/kg
[32] = target: Lysophosphatidic acid receptor 1 (Homo sapiens, UniProt Q92633); assay: Inhibition of LPA1 (unknown origin)
[33] = target: T2, Lysophosphatidic acid receptor 3 (Homo sapiens, UniProt Q9UBY5); assay: Inhibition of LPA3 (unknown origin)
T2 sequence (Q9UBY5 whole entry): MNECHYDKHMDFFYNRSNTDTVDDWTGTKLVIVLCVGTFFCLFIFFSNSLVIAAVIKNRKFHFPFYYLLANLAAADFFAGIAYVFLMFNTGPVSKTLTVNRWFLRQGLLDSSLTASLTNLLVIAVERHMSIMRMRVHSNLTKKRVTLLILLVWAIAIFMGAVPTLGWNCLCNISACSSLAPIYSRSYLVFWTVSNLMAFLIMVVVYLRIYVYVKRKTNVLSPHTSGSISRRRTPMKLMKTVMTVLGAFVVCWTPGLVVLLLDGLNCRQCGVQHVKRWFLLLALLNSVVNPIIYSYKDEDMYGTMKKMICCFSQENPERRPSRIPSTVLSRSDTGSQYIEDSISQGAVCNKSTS

[34] = Half life in cynomolgus monkey at 0.2 mg/kg, iv; type: ADME, organism-based, Macaca fascicularis; settings: in vivo
[35] = AUC (0 to 24 hrs) in C57BL/6 mouse plasma at 2.32 mg/kg; type: ADME, organism-based; design: time < 24 hr, dose 2.32 mg/kg
[36] = Tmax in rat at 10 mg/kg, po; type: ADME, organism-based; settings: in vivo
[37] = Cmax in rat at 10 mg/kg, po; type: ADME, organism-based; design: route oral, dose 10 mg/kg; settings: in vivo
[38] = Volume of distribution at steady state in dog at 0.2 mg/kg, iv; type: ADME, organism-based, Canis lupus familiaris; settings: in vivo, read-out: Vdss

T1 sequence (Q12809 whole entry): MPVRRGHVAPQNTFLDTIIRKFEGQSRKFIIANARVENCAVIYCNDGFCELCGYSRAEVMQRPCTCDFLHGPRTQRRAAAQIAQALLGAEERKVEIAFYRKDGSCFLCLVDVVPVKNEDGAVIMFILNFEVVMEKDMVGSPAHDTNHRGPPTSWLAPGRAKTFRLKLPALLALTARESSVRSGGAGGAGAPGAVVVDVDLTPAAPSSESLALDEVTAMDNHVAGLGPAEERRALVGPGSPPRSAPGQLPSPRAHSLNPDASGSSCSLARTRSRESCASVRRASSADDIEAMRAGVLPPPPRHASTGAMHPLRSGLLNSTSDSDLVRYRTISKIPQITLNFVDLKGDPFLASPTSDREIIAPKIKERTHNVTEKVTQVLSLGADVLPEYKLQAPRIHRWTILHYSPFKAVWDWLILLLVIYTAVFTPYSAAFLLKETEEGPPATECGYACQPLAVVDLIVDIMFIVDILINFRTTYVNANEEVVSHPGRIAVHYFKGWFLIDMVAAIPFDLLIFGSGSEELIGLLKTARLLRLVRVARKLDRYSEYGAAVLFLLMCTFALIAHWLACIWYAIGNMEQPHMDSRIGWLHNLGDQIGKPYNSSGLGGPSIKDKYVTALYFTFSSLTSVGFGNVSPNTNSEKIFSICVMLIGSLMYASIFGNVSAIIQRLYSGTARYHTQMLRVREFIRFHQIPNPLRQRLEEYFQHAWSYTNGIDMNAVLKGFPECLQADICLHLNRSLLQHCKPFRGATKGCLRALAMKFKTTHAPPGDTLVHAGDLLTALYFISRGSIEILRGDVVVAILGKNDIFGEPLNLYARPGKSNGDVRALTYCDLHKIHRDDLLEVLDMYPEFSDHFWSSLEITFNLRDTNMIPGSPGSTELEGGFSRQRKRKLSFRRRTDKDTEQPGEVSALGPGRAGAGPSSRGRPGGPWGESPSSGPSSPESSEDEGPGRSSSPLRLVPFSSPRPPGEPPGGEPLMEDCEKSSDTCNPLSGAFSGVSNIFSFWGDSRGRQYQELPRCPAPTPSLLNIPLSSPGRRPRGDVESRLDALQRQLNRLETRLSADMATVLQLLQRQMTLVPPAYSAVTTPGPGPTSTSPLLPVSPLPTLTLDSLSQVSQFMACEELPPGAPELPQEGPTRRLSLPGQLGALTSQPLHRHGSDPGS
Sequence of Lysophosphatidic acid receptor 5 (Q9H1C0 whole entry): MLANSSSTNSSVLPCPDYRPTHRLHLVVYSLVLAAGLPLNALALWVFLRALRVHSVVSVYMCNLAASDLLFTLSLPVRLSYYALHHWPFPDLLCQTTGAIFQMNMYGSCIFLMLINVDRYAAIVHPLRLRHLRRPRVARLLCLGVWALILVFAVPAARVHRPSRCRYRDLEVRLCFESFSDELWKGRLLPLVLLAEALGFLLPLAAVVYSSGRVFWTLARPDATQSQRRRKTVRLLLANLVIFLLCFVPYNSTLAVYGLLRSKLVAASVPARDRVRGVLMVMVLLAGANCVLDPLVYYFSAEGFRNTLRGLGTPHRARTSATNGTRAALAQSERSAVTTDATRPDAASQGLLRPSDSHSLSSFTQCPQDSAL
Sequence of Sphingosine 1-phosphate receptor 1 (P21453 whole entry): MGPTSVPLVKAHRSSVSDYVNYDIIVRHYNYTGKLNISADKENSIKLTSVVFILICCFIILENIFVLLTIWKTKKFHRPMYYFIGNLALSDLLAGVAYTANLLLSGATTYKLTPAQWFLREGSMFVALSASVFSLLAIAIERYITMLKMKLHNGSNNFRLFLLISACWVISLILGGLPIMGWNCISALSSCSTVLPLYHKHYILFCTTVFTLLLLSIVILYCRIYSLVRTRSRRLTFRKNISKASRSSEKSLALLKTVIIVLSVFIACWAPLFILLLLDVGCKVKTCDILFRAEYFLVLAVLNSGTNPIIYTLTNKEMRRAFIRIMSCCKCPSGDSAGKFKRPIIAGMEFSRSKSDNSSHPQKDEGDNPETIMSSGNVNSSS
Sequence of Lysophosphatidic acid receptor 2 (Q9HBW0 whole entry): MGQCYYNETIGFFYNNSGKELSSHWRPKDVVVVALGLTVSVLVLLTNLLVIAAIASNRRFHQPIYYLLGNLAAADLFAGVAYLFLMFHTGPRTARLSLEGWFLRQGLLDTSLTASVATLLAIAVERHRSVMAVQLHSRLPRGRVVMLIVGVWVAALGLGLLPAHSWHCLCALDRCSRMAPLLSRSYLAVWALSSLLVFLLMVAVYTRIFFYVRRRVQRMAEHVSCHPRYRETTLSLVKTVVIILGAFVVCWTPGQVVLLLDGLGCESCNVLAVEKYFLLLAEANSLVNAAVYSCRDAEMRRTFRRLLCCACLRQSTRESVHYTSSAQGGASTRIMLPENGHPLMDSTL
Sequence of Sphingosine 1-phosphate receptor 3 (Q99500 whole entry): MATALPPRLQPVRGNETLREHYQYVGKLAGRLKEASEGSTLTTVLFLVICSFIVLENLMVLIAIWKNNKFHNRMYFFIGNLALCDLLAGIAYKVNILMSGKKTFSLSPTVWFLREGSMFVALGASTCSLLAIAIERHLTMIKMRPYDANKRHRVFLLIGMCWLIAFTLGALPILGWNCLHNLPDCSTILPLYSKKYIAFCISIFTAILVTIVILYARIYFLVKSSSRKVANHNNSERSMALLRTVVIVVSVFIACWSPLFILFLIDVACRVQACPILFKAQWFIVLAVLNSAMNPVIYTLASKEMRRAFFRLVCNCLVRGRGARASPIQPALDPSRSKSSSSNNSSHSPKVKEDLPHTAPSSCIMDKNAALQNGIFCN
Sequence of Lysophosphatidic acid receptor 1 (Q92633 whole entry): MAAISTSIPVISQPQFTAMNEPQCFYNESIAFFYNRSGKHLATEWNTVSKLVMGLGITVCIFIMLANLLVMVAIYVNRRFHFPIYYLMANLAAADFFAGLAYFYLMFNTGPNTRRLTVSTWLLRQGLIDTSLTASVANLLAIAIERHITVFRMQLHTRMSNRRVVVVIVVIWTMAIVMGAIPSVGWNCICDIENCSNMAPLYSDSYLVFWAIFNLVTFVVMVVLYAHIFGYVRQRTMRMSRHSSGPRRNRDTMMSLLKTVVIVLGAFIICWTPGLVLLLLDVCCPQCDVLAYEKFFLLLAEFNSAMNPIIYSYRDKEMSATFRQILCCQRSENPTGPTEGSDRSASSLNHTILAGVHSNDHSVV
Sequence of Cytochrome P450 2C9 (P11712 whole entry): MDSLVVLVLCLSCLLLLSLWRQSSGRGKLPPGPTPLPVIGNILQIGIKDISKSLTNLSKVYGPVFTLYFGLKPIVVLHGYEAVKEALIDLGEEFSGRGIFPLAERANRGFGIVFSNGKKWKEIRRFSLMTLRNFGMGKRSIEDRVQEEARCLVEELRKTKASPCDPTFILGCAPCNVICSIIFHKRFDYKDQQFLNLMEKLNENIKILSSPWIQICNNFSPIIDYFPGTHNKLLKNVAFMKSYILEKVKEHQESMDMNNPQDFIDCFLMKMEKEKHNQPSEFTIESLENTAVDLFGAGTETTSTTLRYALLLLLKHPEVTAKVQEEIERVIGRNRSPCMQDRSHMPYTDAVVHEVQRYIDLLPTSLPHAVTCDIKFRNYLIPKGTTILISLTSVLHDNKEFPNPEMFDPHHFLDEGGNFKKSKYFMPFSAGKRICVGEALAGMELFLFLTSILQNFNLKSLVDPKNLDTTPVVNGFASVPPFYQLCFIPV
Sequence of Cytochrome P450 3A4 (P08684 whole entry): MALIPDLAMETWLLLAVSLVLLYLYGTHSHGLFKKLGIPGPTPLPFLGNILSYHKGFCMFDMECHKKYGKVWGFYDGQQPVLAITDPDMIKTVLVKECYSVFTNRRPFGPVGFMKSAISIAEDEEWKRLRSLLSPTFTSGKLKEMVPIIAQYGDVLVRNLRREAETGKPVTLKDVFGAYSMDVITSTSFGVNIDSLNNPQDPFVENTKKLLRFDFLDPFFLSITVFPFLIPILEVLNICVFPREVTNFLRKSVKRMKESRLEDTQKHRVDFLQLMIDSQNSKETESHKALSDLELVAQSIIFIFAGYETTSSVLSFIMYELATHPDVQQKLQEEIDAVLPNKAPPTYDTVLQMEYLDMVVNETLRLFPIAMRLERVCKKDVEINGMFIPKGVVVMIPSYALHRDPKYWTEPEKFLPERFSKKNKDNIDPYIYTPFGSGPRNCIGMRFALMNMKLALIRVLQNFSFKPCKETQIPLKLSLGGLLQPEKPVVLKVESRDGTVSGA

In the case of `C[C@@H](c1ccc2ccc(O[C@H]3CC[C@@H](C(F)(F)F)CC3)c(C(F)(F)F)c2c1)N1C2CCC1CC(C(=O)O)C2` (stereo not given in full), the bioavailability [1] is reported as 69%, the bioavailability [2] is reported as 66% and the AUC(0-t) at 24 h [3] is reported as 3970 ng·h/mL. For the same molecule, the IC50 (Cytochrome P450 2C9) was over 10 µM, the Tmax [4] was 7 h and the Papp A→B at 2 h [5] was 16.8 ×10⁻⁶ cm/s. It also gave an IC50 [6] of over 10 µM, a Papp B→A at 2 h [7] of 40.3 ×10⁻⁶ cm/s and an Activity (Rattus norvegicus [8]) of 92%. For the same molecule, the IC50 [9] was over 10 µM, the IC50 [10] was over 10 µM and the AUC(0-t) at 24 h [11] was 8840 ng·h/mL. For the same molecule, the IC50 (Cytochrome P450 3A4) was over 10 µM, the concentration at 6 h [12] was 42 ng/mL and the inhibition at 1 µM (hERG (KCNH2) [13]) was 1.4%. The concentration at 6 h [14] was 0.95 ng/mL, the inhibition at 10 µM (hERG (KCNH2) [15]) was 21.3% and the Cmax [16] was 1270 ng/mL. For the same molecule, the Tmax [17] was 2 h, the Vd [18] was 2.36 L/kg and the Activity (Rattus norvegicus [19]) was 89%. It also gave a Kp at 4 h [20] of 0.2, an IC50 [21] of over 10 µM and a solubility thermodynamic [22] of 73.2 µg/mL (≈ 135 µM). For the same molecule, the concentration at 6 h [23] was 4.3 ng/mL, the AUC(0-t) at 24 h [24] was 594 ng·h/mL and the clearance [25] was 29 mL/min/kg. For the same molecule, the half-life [26] was 283 min, the Vd [27] was 3 L/kg and the AUC [28] was 8840 ng·h/mL. For the same molecule, the concentration at 4 h [29] was 97 ng/mL, the Fu [30] was 0.096% and the AUC(0-t) at 24 h [31] was 12200 ng·h/mL. The IC50 [32] was over 10 µM, the IC50 [33] was over 10 µM and the half-life [34] was 240 min. For the same molecule, the AUC(0-t) at 24 h [35] was 6170 ng·h/mL, the Tmax [36] was 1.6 h and the Cmax [37] was 813 ng/mL. For the same molecule, the Vd [38] was 2 L/kg.
